biological target: T1, AKT1-E17K (Homo sapiens, UniProt P31749, E17K); assay: NanoBRET Target Engagement (TE) Assay; type: cell-based
T1 construct: host or cells: HEK-293 (ATCC CRL-1573)
How it was run: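 Live cells transiently expressing NanoLuc-AKT1 E17K fusion, incubated 2 h with tracer and compound before substrate plus extracellular NanoLuc inhibitor were added. BRET read at 450/600 nm; EC50 from variable-slope sigmoidal fit of tracer displacement.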

T1 sequence (P31749 whole entry E17K): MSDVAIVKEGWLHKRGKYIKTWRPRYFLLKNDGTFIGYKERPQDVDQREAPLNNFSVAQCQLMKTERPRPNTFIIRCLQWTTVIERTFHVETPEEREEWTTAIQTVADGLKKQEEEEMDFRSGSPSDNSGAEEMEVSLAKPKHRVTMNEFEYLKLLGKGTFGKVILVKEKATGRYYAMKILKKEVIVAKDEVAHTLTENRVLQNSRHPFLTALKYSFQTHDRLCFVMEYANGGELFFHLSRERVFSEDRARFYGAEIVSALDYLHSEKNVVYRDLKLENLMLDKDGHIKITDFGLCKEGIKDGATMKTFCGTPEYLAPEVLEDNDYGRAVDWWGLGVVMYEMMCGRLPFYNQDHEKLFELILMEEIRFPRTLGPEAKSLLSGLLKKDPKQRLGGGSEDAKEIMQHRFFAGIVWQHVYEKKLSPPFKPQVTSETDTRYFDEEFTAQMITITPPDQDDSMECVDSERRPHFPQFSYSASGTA

Row | Compound | IC50 [nM]
1 | Nc1ncccc1-c1nc2ccc(-c3ccccc3)nc2n1-c1ccc(CN2CC(NC(=O)c3ccc(C=O)c(O)c3)C2)cc1 [Example 65, N-(1-(4-(2-(2-Aminopyridin-3-yl)-5-phenyl-3H-imidazo[4,5-h]pyridin-3-yl)benzyl)azetidin-3-yl)-4-formyl-3-hydroxybenzamide] | 15 to 60
2 | Nc1ncccc1-c1nc2ccc(-c3ccccc3)nc2n1-c1ccc(CN2CC3(C2)CN(C(=O)c2ccc(C=O)c(O)c2)C3)cc1 [Example 66, 4-(6-(4-(2-(2-Aminopyridin-3-yl)-5-phenyl-3H-imidazo[4,5-b]pyridin-3-yl)benzyl)-2,6-diazaspiro[3.3]heptane-2-carbonyl)-2-hydroxybenzaldehyde] | 60 to 600
3 | Nc1ncccc1-c1nc2ccc(-c3ccccc3)nc2n1-c1ccc(CN2CCC3(CC2)CN(C(=O)c2ccc(O)c(C=O)c2)C3)cc1 [Example 67, 5-(7-(4-(2-(2-Aminopyridin-3-yl)-5-phenyl-3H-imidazo[4,5-b]pyridin-3-yl)benzyl)-2,7-diazaspiro[3.5]nonane-2-carbonyl)-2-hydroxybenzaldehyde] | 60 to 600
4 | Nc1ncccc1-c1nc2ccc(-c3ccccc3)nc2n1-c1ccc(CN2CCC3(CC2)CC(NC(=O)c2ccc(O)c(C=O)c2)C3)cc1 [Example 68, N-(7-(4-(2-(2-Aminopyridin-3-yl)-5-phenyl-3H-imidazo[4,5-b]pyridin-3-yl)benzyl)-7-azaspiro[3.5]nonan-2-yl)-3-formyl-4-hydroxybenzamide] | 15 to 60
5 | Nc1ncccc1-c1nc2ccc(-c3ccccc3)nc2n1-c1ccc(CN2CC3(CC(NC(=O)c4ccc(O)c(C=O)c4)C3)C2)cc1 [Example 69, N-(2-(4-(2-(2-Aminopyridin-3-yl)-5-phenyl-3H-imidazo[4,5-b]pyridin-3-yl)benzyl)-2-azaspiro[3.3]heptan-6-yl)-3-formyl-4-hydroxybenzamide] | < 15
6 | Nc1ncccc1-c1nc2ccc(-c3ccccc3)nc2n1-c1ccc(CN2CC3(CC(NC(=O)c4ccc(C=O)c(O)c4)C3)C2)cc1 [Example 70, N-(2-(4-(2-(2-Aminopyridin-3-yl)-5-phenyl-3H-imidazo[4,5-b]pyridin-3-yl)benzyl)-2-azaspiro[3.3]heptan-6-yl)-4-formyl-3-hydroxybenzamide] | 60 to 600
7 | Nc1ncccc1-c1nc2ccc(-c3ccccc3)nc2n1-c1ccc(CN2CCC3(CC2)CN(C(=O)c2ccc(C=O)c(O)c2)C3)cc1 [Example 71, 4-(7-(4-(2-(2-Aminopyridin-3-yl)-5-phenyl-3H-imidazo[4,5-b]pyridin-3-yl)benzyl)-2,7-diazaspiro[3.5]nonane-2-carbonyl)-2-hydroxybenzaldehyde] | > 600
8 | Nc1ncccc1-c1nc2ccc(-c3ccccc3)nc2n1-c1ccc(CN2CCCN(C(=O)c3ccc(C=O)c(O)c3)CC2)cc1 [Example 72, 4-(4-(4-(2-(2-Aminopyridin-3-yl)-5-phenyl-3H-imidazo[4,5-b]pyridin-3-yl)benzyl)-1,4-diazepane-1-carbonyl)-2-hydroxybenzaldehyde] | 15 to 60
9 | Nc1ncccc1-c1nc2ccc(-c3ccccc3)nc2n1-c1ccc(CN2CCC3(CC2)CN(c2ccc(C=O)c(O)c2)C3)cc1 [Example 73, 4-(7-(4-(2-(2-Aminopyridin-3-yl)-5-phenyl-3H-imidazo[4,5-b]pyridin-3-yl)benzyl)-2,7-diazaspiro[3.5]nonan-2-yl)-2-hydroxybenzaldehyde] | 60 to 600
10 | Nc1ncccc1-c1nc2ccc(-c3ccccc3)nc2n1-c1ccc(CN2CCC3(CC2)CCN(C(=O)c2ccc(O)c(C=O)c2)C3)cc1 [Example 74, 5-(8-(4-(2-(2-aminopyridin-3-yl)-5-phenyl-3H-imidazo[4,5-b]pyridin-3-yl)benzyl)-2,8-diazaspiro[4.5]decane-2-carbonyl)-2-hydroxybenzaldehyde] | 15 to 60
11 | Nc1ncccc1-c1nc2ccc(-c3ccccc3)nc2n1-c1ccc(CN2CCC3(CC2)CCN(C(=O)c2ccc(C=O)c(O)c2)C3)cc1 [Example 75, 4-(8-(4-(2-(2-Aminopyridin-3-yl)-5-phenyl-3H-imidazo[4,5-b]pyridin-3-yl)benzyl)-2,8-diazaspiro[4.5]decane-2-carbonyl)-2-hydroxybenzaldehyde] | 60 to 600

Second part, the compound after the results:

Row | IC50 [nM] | Compound
12 | 60 to 600 | Nc1ncccc1-c1nc2ccc(-c3ccccc3)nc2n1-c1ccc(CN2CCC3(CC2)CCN(c2ccc(C=O)c(O)c2)C3)cc1 [Example 76, 4-(8-(4-(2-(2-Aminopyridin-3-yl)-5-phenyl-3H-imidazo[4,5-b]pyridin-3-yl)benzyl)-2,8-diazaspiro[4.5]decan-2-yl)-2-hydroxybenzaldehyde]
13 | 60 to 600 | Nc1ncccc1-c1nc2ccc(-c3ccccc3)nc2n1-c1ccc(CN2CCC3(CC2)CCN(C(=O)c2ccc(O)c(C=O)c2)CC3)cc1 [Example 77, 5-(9-(4-(2-(2-Aminopyridin-3-yl)-5-phenyl-3H-imidazo[4,5-b]pyridin-3-yl)benzyl)-3,9-diazaspiro[5.5]undecane-3-carbonyl)-2-hydroxybenzaldehyde]
14 | 60 to 600 | Nc1ncccc1-c1nc2ccc(-c3ccccc3)nc2n1-c1ccc(CN2CCC3(CC2)CCN(c2ccc(C=O)c(O)c2)CC3)cc1 [Example 78, 4-(9-(4-(2-(2-Aminopyridin-3-yl)-5-phenyl-3H-imidazo[4,5-b]pyridin-3-yl)benzyl)-3,9-diazaspiro[5.5]undecan-3-yl)-2-hydroxybenzaldehyde]
15 | 15 to 60 | Nc1ncccc1-c1nc2ccc(-c3ccccc3)nc2n1-c1ccc(CN2CCC3(C2)CN(c2ccc(C=O)c(O)c2)C3)cc1 [Example 79, 4-(6-(4-(2-(2-Aminopyridin-3-yl)-5-phenyl-3H-imidazo[4,5-b]pyridin-3-yl)benzyl)-2,6-diazaspiro[3.4]octan-2-yl)-2-hydroxybenzaldehyde]
16 | 60 to 600 | Nc1ncccc1-c1nc2ccc(-c3ccccc3)nc2n1-c1ccc(CN2CCC3(CCN(C(=O)c4ccc(O)c(C=O)c4)C3)C2)cc1 (stereo not shown) [Example 80, 5-(7-(4-(2-(2-Aminopyridin-3-yl)-5-phenyl-3H-imidazo[4,5-b]pyridin-3-yl)benzyl)-2,7-diazaspiro[4.4]nonane-2-carbonyl)-2-hydroxybenzaldehyde]
17 | 60 to 600 | Nc1ncccc1-c1nc2ccc(-c3ccccc3)nc2n1-c1ccc(CN2CCC3(CCN(C(=O)c4ccc(C=O)c(O)c4)C3)C2)cc1 (stereo not shown) [Example 81, 4-(7-(4-(2-(2-Aminopyridin-3-yl)-5-phenyl-3H-imidazo[4,5-b]pyridin-3-yl)benzyl)-2,7-diazaspiro[4.4]nonane-2-carbonyl)-2-hydroxybenzaldehyde]
18 | 60 to 600 | Nc1ncccc1-c1nc2ccc(-c3ccccc3)nc2n1-c1ccc(CN2CCC3(CCN(c4ccc(C=O)c(O)c4)C3)C2)cc1 (stereo not shown) [Example 82, 4-(7-(4-(2-(2-Aminopyridin-3-yl)-5-phenyl-3H-imidazo[4,5-b]pyridin-3-yl)benzyl)-2,7-diazaspiro[4.4]nonan-2-yl)-2-hydroxybenzaldehyde]
19 | 60 to 600 | Nc1ncccc1-c1nc2ccc(-c3ccccc3)nc2n1-c1ccc(CN2CCC3(CCN(c4ccc(O)c(C=O)c4)C3)C2)cc1 (stereo not shown) [Example 83, 5-(7-(4-(2-(2-Aminopyridin-3-yl)-5-phenyl-3H-imidazo[4,5-b]pyridin-3-yl)benzyl)-2,7-diazaspiro[4.4]nonan-2-yl)-2-hydroxybenzaldehyde]

— US20260365647A1, “AKT1 MODULATORS” (Alterome Therapeutics, Inc., priority 2022, published 2026)
